Measured values taken from patent publication US20240368150A1 (Hoffmann-La Roche Inc., priority 2021, published 2024).
Read-outs that look alike come from different tables or passages of the source.

How the values were obtained:
primary human T-cells [1] = system: primary human T-cells
Procedure: As readouts for T-cell activation, IL2 secretion after 24 hours and proliferation after 5 days was measured. Increases in IL2 secretion and proliferation upon compound treatment were assessed as the % of the maximum of reference compound A1. […] As a counter screen and to make sure that no unwanted TCR-independent activation was triggered, PBS conditions were run for all compounds.
For coating of plates, PBS++ with PBS−− or PBS++ with CD3 antibody (concentration depending on donor and determined by CD3 titrations) was added 100 μl/well to Poly-D Lysine coated 96-well plates. Plates were sealed and incubated at room temperature for 3 hours on a table-top rocking platform. After incubation, plates were washed once with PBS−− and filled with 40 μl/well culture medium only. Compounds were then added (see next section) to medium only plates. After 3 hours of culturing the T-cells, cells were filtered through a cell strainer (Miltenyi Biotech, #130-041-407), counted again and concentration was adjusted to 1.25 Mio/ml.
Cells were then seeded 80 μl/well to the 40 μl/well including dispensed compounds according to plate layout. By adding cells, compounds were further diluted 1:3, and resulting in 100 k cells/120 μl/well. After 24 hours 40 μl of supernatant was collected carefully from the top while not disturbing the cells and transferred into a round bottom 96 well plate. Collected and frozen supernatant was used for detection of IL2 using the IL-2 Human ProQuantum Immunoassay Kit (Invitrogen) or using the Human IL-2 ELISA Kit (Thermo Fisher).
Compounds were added in a 5 or 6pt dose response with the Tecan D300e Digital Dispenser, all conditions 3 times more concentrated than the end-concentration, since cells are added afterwards (80 μl cells to 40 μl prepared medium with treatment). The DR was starting at 20 μM or 10 μM final top concentration and a dilution factor of 3.333. The positive control was the reference compound A1 that was added in a dose response as well, additionally to 3 wells of only 20 μM representing the positive stimulator control. All wells were normalized with DMSO to a final concentration of 0.6% (0.2% end-concentration).
The immunoassay is done following the manufacturer's manual (Invitrogen, #A35603). Additional information: For the immunoassay, MicroAmp™ EnduraPlate™ Optical 384-Well plates are used. Frozen supernatant is thawed and centrifuged for 5 minutes at 1000×g, both steps at 4° C. After centrifugation, required sample amount is taken from the top, and in a separate LightCycler V-bottom plate (working plate) diluted with assay dilution buffer, dilution factor depending on the PBS or CD3 condition but at least 1:3. IL-2 standard and blanks are prepared in the same V-bottom plate, standard with a range of 0.0128-5000 pg/ml (extended version). After preparation, 5 μl of sample dilutions or standard/blanks are transferred to the optical 384-well plate (assay plate) and the 10 μl reaction protocol is being followed. For measurement, the QuantStudio 12K Flex system is used.
ELISA is done following the manufacturer's manual (Thermo Fisher Scientific, #88-7025-88). Additional information: For the ELISA Nunc MaxiSorp 96 well plates are used. Frozen supernatant is thawed and centrifuged for 5 minutes at 1000×g, both steps at 4° C. After that, required sample amount is taken from the top, and in a separate V-bottom plate diluted with ELISA diluent, dilution factor depending on the PBS or CD3 condition. IL-2 standard and blanks are prepared in the same V-bottom plate. After preparation, 50 μl of sample dilutions and 100 μl of standard or blanks are transferred to the Nunc plates.
CD3 and PBS plates were analysed separately in Genedata Screener using Roche Normalization PCT_POS_CTRL with DMSO set as Neutral Control and 20 μM of the reference compound A1 set as Stimulator Control/100%.
For CD3 conditions EC50 and Emax of the fitted sigmoidal curve were reported.

primary human T-cells [2] = assay: Proliferation assay after 5 days (CellTiter-Glo, CD3 stimulation; PBS counter screen); assay type: cell-based; conditions: Homo sapiens, T-cell, 120 h, CD3 stimulation; for Emax: 5 days, normalized to reference compound A1 as stimulator control = 100%, DMSO neutral control, read-out: Emax proliferation (% activation); for EC50: primary human T-cells, CellTiter-Glo after 5 days, EC50 of fitted sigmoidal curve, read-out: Tcell Proliferation CD3 EC50
How it was run: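 Read-out: CellTiter-Glo 2.0 luminescence (ATP ∝ cell number) at day 5 after compound addition. Compounds activating unstimulated cells or reducing viability flagged.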

EC50 (primary human T-cells [1]) [nM]	SMILES	Emax (primary human T-cells [2]) [%]	EC50 (primary human T-cells [2]) [nM]
1040	N[C@H]1CS(=O)(=O)c2cc(F)c(-c3nnc(-c4ccccc4)o3)cc2N(Cc2ccc(Cl)cc2)C1=O [Example 97, (3R)-3-amino-5-[(4-chlorophenyl)methyl]-8-fluoro-1,1-dioxo-7-(5-phenyl-1,3,4-oxadiazol-2-yl)-2,3-dihydro-1λ^6,5-benzothiazepin-4-one]	115	520
71.2	Cc1ccccc1-c1nnc(-c2cc3c(cc2F)S(=O)(=O)C[C@H](N)C(=O)N3Cc2ccc(Cl)cc2)o1 [Example 98, (3R)-3-amino-5-[(4-chlorophenyl)methyl]-8-fluoro-7-[5-(o-tolyl)-1,3,4-oxadiazol-2-yl]-1,1-dioxo-2,3-dihydro-1λ^6,5-benzothiazepin-4-one]	112	64.6
105	N[C@H]1CS(=O)(=O)c2cc(F)c(-c3nnc(-c4ccc(F)cc4)o3)cc2N(Cc2ccc(Cl)cc2)C1=O [Example 99, (3R)-3-amino-5-[(4-chlorophenyl)methyl]-8-fluoro-7-[5-(4-fluorophenyl)-1,3,4-oxadiazol-2-yl]-1,1-dioxo-2,3-dihydro-1λ^6,5-benzothiazepin-4-one]	112	82.2
484	Cc1cccc(F)c1-c1nnc(-c2cc3c(cc2F)S(=O)(=O)C[C@H](N)C(=O)N3Cc2ccc(Cl)cc2)o1 [Example 100, (3R)-3-amino-5-[(4-chlorophenyl)methyl]-8-fluoro-7-[5-(2-fluoro-6-methyl-phenyl)-1,3,4-oxadiazol-2-yl]-1,1-dioxo-2,3-dihydro-1λ^6,5-benzothiazepin-4-one]	89	49.6
72.2	CC(C)Cc1nnc(-c2cc3c(cc2F)S(=O)(=O)C[C@H](N)C(=O)N3Cc2ccc(Cl)cc2)o1 [Example 101, (3R)-3-amino-5-[(4-chlorophenyl)methyl]-8-fluoro-7-(5-isobutyl-1,3,4-oxadiazol-2-yl)-1,1-dioxo-2,3-dihydro-1λ^6,5-benzothiazepin-4-one]	121	49.1
> 10000	CC1(c2nnc(-c3cc4c(cc3F)S(=O)(=O)C[C@H](N)C(=O)N4Cc3ccc(Cl)cc3)o2)CNC1 [Example 102, (3R)-3-amino-5-[(4-chlorophenyl)methyl]-8-fluoro-7-[5-(3-methylazetidin-3-yl)-1,3,4-oxadiazol-2-yl]-1,1-dioxo-2,3-dihydro-1λ^6,5-benzothiazepin-4-one]	65	7690
583	CC(C#N)c1nnc(-c2cc3c(cc2F)S(=O)(=O)C[C@H](N)C(=O)N3Cc2ccc(Cl)cc2)o1 (stereo partly drawn) [Example 103, 2-[5-[(3R)-3-amino-5-[(4-chlorophenyl)methyl]-8-fluoro-1,1,4-trioxo-2,3-dihydro-1λ^6,5-benzothiazepin-7-yl]-1,3,4-oxadiazol-2-yl]propanenitrile]	102	213
277	CC(C)(C#N)c1nnc(-c2cc3c(cc2F)S(=O)(=O)C[C@H](N)C(=O)N3Cc2ccc(Cl)cc2)o1 [Example 104, 2-methyl-2-[5-[(3R)-3-amino-5-[(4-chlorophenyl)methyl]-8-fluoro-1,1,4-trioxo-2,3-dihydro-1λ^6,5-benzothiazepin-7-yl]-1,3,4-oxadiazol-2-yl]propanenitrile]	112	150
1170	N[C@H]1CS(=O)(=O)c2cc(F)c(-c3nnc(C4CNCCC4(F)F)o3)cc2N(Cc2ccc(Cl)cc2)C1=O (stereo partly drawn) [Example 105, (3R)-3-amino-5-[(4-chlorophenyl)methyl]-7-[5-(4,4-difluoro-3-piperidyl)-1,3,4-oxadiazol-2-yl]-8-fluoro-1,1-dioxo-2,3-dihydro-1λ^6,5-benzothiazepin-4-one]	31	4160
784	Cc1ccc(-c2nnc(-c3cc4c(cc3F)S(=O)(=O)C[C@H](N)C(=O)N4Cc3ccc(Cl)cc3)o2)cc1 [Example 106, (3R)-3-amino-5-[(4-chlorophenyl)methyl]-8-fluoro-1,1-dioxo-7-[5-(p-tolyl)-1,3,4-oxadiazol-2-yl]-2,3-dihydro-1λ^6,5-benzothiazepin-4-one]	111	254
188	Cc1cccc(-c2nnc(-c3cc4c(cc3F)S(=O)(=O)C[C@H](N)C(=O)N4Cc3ccc(Cl)cc3)o2)c1 [Example 107, (3R)-3-amino-5-[(4-chlorophenyl)methyl]-8-fluoro-7-[5-(m-tolyl)-1,3,4-oxadiazol-2-yl]-1,1-dioxo-2,3-dihydro-1λ^6,5-benzothiazepin-4-one]	134	955
498	N[C@H]1CS(=O)(=O)c2cc(F)c(-c3nnc(-c4ccccc4F)o3)cc2N(Cc2ccc(Cl)cc2)C1=O [Example 108, (3R)-3-amino-5-[(4-chlorophenyl)methyl]-8-fluoro-7-[5-(2-fluorophenyl)-1,3,4-oxadiazol-2-yl]-1,1-dioxo-2,3-dihydro-1λ^6,5-benzothiazepin-4-one]	117	1530
1500	Cc1nc(-c2nnc(-c3cc4c(cc3F)S(=O)(=O)C[C@H](N)C(=O)N4Cc3ccc(Cl)cc3)o2)no1 [Example 109, (3R)-3-amino-5-[(4-chlorophenyl)methyl]-8-fluoro-7-[5-(5-methyl-1,2,4-oxadiazol-3-yl)-1,3,4-oxadiazol-2-yl]-1,1-dioxo-2,3-dihydro-1λ^6,5-benzothiazepin-4-one]	86	1740
232	N[C@H]1CS(=O)(=O)c2cc(F)c(-c3nnc(C4CC5(CCOC5)C4)o3)cc2N(Cc2ccc(Cl)cc2)C1=O (stereo partly drawn) [Example 110, (3R)-3-amino-5-[(4-chlorophenyl)methyl]-8-fluoro-7-[5-(6-oxaspiro[3.4]octan-2-yl)-1,3,4-oxadiazol-2-yl]-1,1-dioxo-2,3-dihydro-1λ^6,5-benzothiazepin-4-one]	131	125
3130	CC(C)(CN)c1nnc(-c2cc3c(cc2F)S(=O)(=O)C[C@H](N)C(=O)N3Cc2ccc(Cl)cc2)o1 [Example 111, (3R)-3-amino-7-[5-(2-amino-1,1-dimethyl-ethyl)-1,3,4-oxadiazol-2-yl]-5-[(4-chlorophenyl)methyl]-8-fluoro-1,1-dioxo-2,3-dihydro-1λ^6,5-benzothiazepin-4-one]	97	556
3230	N[C@H]1CS(=O)(=O)c2cc(F)c(-c3nnc(C4(C(F)F)CNC4)o3)cc2N(Cc2ccc(Cl)cc2)C1=O [Example 112, (3R)-3-amino-5-[(4-chlorophenyl)methyl]-7-[5-[3-(difluoromethyl)azetidin-3-yl]-1,3,4-oxadiazol-2-yl]-8-fluoro-1,1-dioxo-2,3-dihydro-1λ^6,5-benzothiazepin-4-one]	124	1050
100	CC1(c2nnc(-c3cc4c(cc3F)S(=O)(=O)C[C@H](N)C(=O)N4Cc3ccc(Cl)cc3)o2)CC1 [Example 113, (3R)-3-amino-5-[(4-chlorophenyl)methyl]-8-fluoro-7-[5-(1-methylcyclopropyl)-1,3,4-oxadiazol-2-yl]-1,1-dioxo-2,3-dihydro-1λ^6,5-benzothiazepin-4-one]	106	107
756	CC(C)N(C)C(=O)c1nnc(-c2cc3c(cc2F)S(=O)(=O)C[C@H](N)C(=O)N3Cc2ccc(Cl)cc2)o1 [Example 114, N-isopropyl-N-methyl-5-[(3R)-3-amino-5-[(4-chlorophenyl)methyl]-8-fluoro-1,1,4-trioxo-2,3-dihydro-1λ^6,5-benzothiazepin-7-yl]-1,3,4-oxadiazole-2-carboxamide]	65	> 10000
2210	CC(CO)(CCl)c1nnc(-c2cc3c(cc2F)S(=O)(=O)C[C@H](N)C(=O)N3Cc2ccc(Cl)cc2)o1 (stereo partly drawn) [Example 115, (3R)-3-amino-7-[5-[1-(chloromethyl)-2-hydroxy-1-methyl-ethyl]-1,3,4-oxadiazol-2-yl]-5-[(4-chlorophenyl)methyl]-8-fluoro-1,1-dioxo-2,3-dihydro-1λ^6,5-benzothiazepin-4-one]	127	495
7340	NC1CC2(C1)CC(c1nnc(-c3cc4c(cc3F)S(=O)(=O)C[C@H](N)C(=O)N4Cc3ccc(Cl)cc3)o1)C2 (stereo partly drawn) [Example 116, (3R)-3-amino-7-[5-(2-aminospiro[3.3]heptan-6-yl)-1,3,4-oxadiazol-2-yl]-5-[(4-chlorophenyl)methyl]-8-fluoro-1,1-dioxo-2,3-dihydro-1λ^6,5-benzothiazepin-4-one]	84	4640
3570	N[C@H]1CS(=O)(=O)c2cc(F)c(-c3nnc(C(=O)N4CCC(F)(F)C4)o3)cc2N(Cc2ccc(Cl)cc2)C1=O [Example 117, (3R)-3-amino-5-[(4-chlorophenyl)methyl]-7-[5-(3,3-difluoropyrrolidine-1-carbonyl)-1,3,4-oxadiazol-2-yl]-8-fluoro-1,1-dioxo-2,3-dihydro-1λ^6,5-benzothiazepin-4-one]	68	5020
228	N#CC1(c2nnc(-c3cc4c(cc3F)S(=O)(=O)C[C@H](N)C(=O)N4Cc3ccc(Cl)cc3)o2)CC1 [Example 118, 1-[5-[(3R)-3-amino-5-[(4-chlorophenyl)methyl]-8-fluoro-1,1,4-trioxo-2,3-dihydro-1λ^6,5-benzothiazepin-7-yl]-1,3,4-oxadiazol-2-yl]cyclopropanecarbonitrile]	99	669
